Results published in US7504537B2, “Hydroxamic acid derivative and MMP inhibitor containing the same as active ingredient” (Dainippon Sumitomo Pharma Co., Ltd., priority 2001, dated 2009).

Experiments:
Format in all cases: biochemical
MMP-9 = MMP-9 (Homo sapiens, UniProt P14780); assay: Test 4 MMP-9 inhibiting activity test (biotin labeled gelatin); conditions: activated human MMP-9, biotin labeled gelatin; read-out: MMP-9 inhibition activity value
Procedure: Test 4 MMP-9 Inhibiting Activity Test
A mixture of buffer solution (190 μl; pH 7.5 solution containing 50 mM Tris-HCl solution, 0.5 m sodium chloride solution and 5 mM calcium chloride solution), human MMP-9 (10 μl) and trypsin solution (20 μl; trypsin 3 mg in activated buffer (5 ml)) was incubated at 37° C. for 10 minutes. Thereto was added aprotinine solution (20 μl; aprotinine (3 mg) in buffer (5 ml)) and the mixture was incubated at 37° C. for 10 minutes, followed by addition of buffer (2 ml). The mixture was preserved under cooling with ice until use.
A mixture of DMSO solution (2 μl) containing definite concentration of the compound, biotin labeled gelatin (188 μl) and activated MMP-9 solution (10 μl) was put on a 96 well-assay plate (protein nonabsorbance type), well agitated, and incubated at 37° C. for 1 hour. This solution was transferred to Streptavidin-coating plate, and agitated at 15° C. to 30° C. for 30 minutes. And then the solution was washed with TTC buffer solution (200 μl) three times. Thereto was added Streptavidin-POD (200 μl) and the mixture was agitated at 15° C. to 25° C. for 60 minutes, followed by washing with TTC buffer (200 μl) three times. Then, ABTS solution (200 μl) was added thereto and after standing at room temperature for 40 minutes, furuorescence intensity was measured at 405 nm and IC50 was calculated.
In case of the above test, DMSO (2 μl) was used as a control instead of a sample solution. In the case of a blank, DMSO (2 μl) instead of the sample solution and the solution (10 μl) prepared in the same manner as preparation of […] but without adding 1.2 Uhuman MMP-9, instead of activated MMP-9 solution (10 μl), were used.

MMP-13 = molecular target: T1, MMP-13 (Homo sapiens, UniProt P45452); assay: Test 2 Test on MMP-13 inhibition activity (fluorogenic peptide substrate); conditions: activated MMP-13, 37° C.
T1 construct: a fragment of 767 bp encoding original 84 amino acids of complete MMP-13 and encoding 164 amino acids; made in house; host or cells: E. coli BL21 (DE3), pET11a
Text: Test 2 Test on MMP-13 Inhibition Activity
In order to subcloning C-terminal truncated cDNA in which the cDNA encodes procollagenase-3 (proMMP-13) (J. Biol. Chem., 269(24), 16766-16773 (1994)), two synthesized oligonucleotide primer fragments: • (5′-[…]-3′ and 5′-[…]-3′: In former the sequence for specific NdeI site (under line) including first methionine is included, and in latter terminal codon and BamHI site (under lined) are included.) were used with human cartilage cell cDNA library for PCR. Due to these primers and Pfu DNA polymelase (STRATAGENE) for PCR, there was obtained a fragment of 767 bp encoding original 84 amino acids of complete MMP-13 and encoding 164 amino acids. The said fragment was cut out with digestion by NdeI and BamHI, and the fragment was annealed to NdeI site and BamHI site of pET11a (STRATAGENE). The recombinant plasmid was transformed into E. coli BL21 (DE3) and the bacteria were cultivated. The crude cell extract was prepared according to the method of Biochemistry. The said extract was dialyzed with 20 mM Tris-HCl (pH 7.2)/5 mM CaCl2/0.02% NaN3 solution, treated with SP-sepharose HP column (1.6×10 cm, Amasham-Pharmacia biotec), and the eluting was carried out by liner gradient from 0 to 0.3 m of sodium chloride solution (50 ml) (partially purified proMMP-13 was eluted at about 0.2M.) The eluted fraction was dialyzed with 20 mM Tris-HCl (pH 7.9)/5 mM CaCl2/200 mM (NH4)2SO4/0.02% NaN3 solution, treated with phenylsepharose HP column (1.6×5 cm, Amersham-Pharmacia biotec), and the eluting was carried out by liner gradient from 0.2M to 0M sulfuric acid ammonium solution (purified proMMP-13 was eluted at about 50 mM.). The eluted fraction was concentrated by YM-5 ultrafilter membrane, and activated by 4-aminophenyl mercuric acetate. Activated MMP-13 was treated with gel filtration chromatography in accordance with the method of Biochemistry to be separated from propeptide. Inhibiting Test Method
Enzyme activity test was carried out by the method of G. Knight (FEBS Lett., 296(3), 263-266 (1992)).
A mixture of activated MMP-13 (20 nM, 10 μl), buffer solution (70 μl, pH 7.5 solution containing 100 mM Tris-HCl solution, 10 mM calcium chloride solution, 100 mM sodium chloride solution and 0.05% Briji-35 solution), MOCAc-Pro-Leu-Gly-Leu-A2pr(DNP)-Ala-Arg-NH2 in 0.1% DMSO solution (100 μM, 10 μl) and a test compound in DMSO solution was incubated for 1.5 hours at 37° C. The mixture was put on a 96 well-plate (100 μl/wel), and the plate was incubated at 37° C. The enzyme activity in the presence of the compound was measured based on fluorescence intensity (λex 320 nm, λem 405 nm), and IC50 was calculated.

MMP-3 = molecular target: T2, MMP-3 (Homo sapiens, UniProt P08254); assay: Test 1 Test on MMP-3 inhibiting activity (fluorogenic peptide substrate); conditions: activated MMP-3, 37° C.; read-out: MMP-3 inhibition activity value
T2 construct: C-terminal truncated cDNA in which the cDNA encodes human prostromelysin; made in house; host or cells: E. coli
T2 sequence (P08254 100-272 limits assumed): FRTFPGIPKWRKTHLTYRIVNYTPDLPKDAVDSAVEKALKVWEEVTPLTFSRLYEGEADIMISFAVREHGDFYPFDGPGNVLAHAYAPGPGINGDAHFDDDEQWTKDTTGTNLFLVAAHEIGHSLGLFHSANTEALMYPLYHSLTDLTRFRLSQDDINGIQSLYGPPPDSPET
Procedure: Test 1 Test on MMP-3 Inhibiting Activity
C-terminal truncated cDNA in which the cDNA encodes human prostromelysin, was subcloned (proMMP-3, cDNA sequence in Nature, 348, 699-704 (1990)), was expressed in E. coli and then, the expressed protein was purified in accordance with the method described in Biochemistry 30, 6476-6483 (1991). proMMP-3 activation was carried out by treating with 1 mM 4-aminophenyl mercuric acetate for 60 minutes at 37° C.
Enzyme activity test was conducted by the method of C. G. Knight (FEBS Lett., 296(3), 263-266 (1992)).
A mixture of activated MMP-3 (20 nM, 10 μl), buffer solution (70 μl, pH 7.5 solution containing 100 mM Tris-HCl solution, 10 mM calcium chloride solution, 100 mM sodium chloride solution and 0.05% Brij-35 solution), MOCAc-Pro-Leu-Gly-Leu-A2pr(DNP)-Ala-Arg-NH2 in 0.1% DMSO solution (100 μM, 10 μl) and a test compound in DMSO solution was incubated for 1.5 hours at 37° C. The mixture was put on a 96 well-plate (100 μl/well) and the plate was cultured at 37° C. The enzyme activity in the presence of the compound was measured based on fluorescence intensity (λex 320 nm, λem 405 nm), and IC50 was calculated.

Chain of MMP-9 (P14780 107-707 limits assumed): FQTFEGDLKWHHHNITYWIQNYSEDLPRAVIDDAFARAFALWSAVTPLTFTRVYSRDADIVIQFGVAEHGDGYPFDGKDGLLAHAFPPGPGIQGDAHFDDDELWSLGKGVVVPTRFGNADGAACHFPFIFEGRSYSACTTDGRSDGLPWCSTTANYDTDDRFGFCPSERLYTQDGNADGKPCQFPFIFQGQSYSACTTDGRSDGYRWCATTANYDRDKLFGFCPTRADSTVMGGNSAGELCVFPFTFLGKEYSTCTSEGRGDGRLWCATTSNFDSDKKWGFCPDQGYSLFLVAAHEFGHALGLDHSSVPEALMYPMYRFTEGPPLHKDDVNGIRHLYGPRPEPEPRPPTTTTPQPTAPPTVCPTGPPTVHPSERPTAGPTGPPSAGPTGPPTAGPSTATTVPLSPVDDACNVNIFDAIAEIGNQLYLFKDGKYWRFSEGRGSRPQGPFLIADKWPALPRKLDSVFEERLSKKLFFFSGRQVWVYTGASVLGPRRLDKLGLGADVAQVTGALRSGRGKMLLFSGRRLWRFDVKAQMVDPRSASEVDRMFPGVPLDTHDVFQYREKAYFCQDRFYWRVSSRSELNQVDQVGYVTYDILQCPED

## CCOC(=O)CCN(C1(C(=O)NO)CCOCC1)S(=O)(=O)c1ccc(Oc2ccc(S(C)(=O)=O)cc2)cc1 [Example 31, Ethyl N-{4-[(hydroxyamino)carbonyl]tetrahydro-2H-pyran-4-yl}-N-({4-[4-(methylsulfonyl)phenoxy]phenyl}sulfonyl)-β-alaninate]
MMP-9
  IC50: 4900 nM
MMP-13
  IC50: 11.2 nM
MMP-3
  IC50: 59 nM

## CCOC(=O)CN(C1(C(=O)NO)CCC1)S(=O)(=O)c1ccc(Oc2ccc(S(C)(=O)=O)cc2)cc1 [Example 46, Ethyl N-{1-[(hydroxyamino)carbonyl]cyclobutyl}-N-({4-[4-(methylsulfonyl)phenoxy]phenyl}sulfonyl)glycinate]
MMP-9
  IC50: > 100 nM
MMP-13
  IC50: 10.5 nM
MMP-3
  IC50: 11.6 nM

## CS(=O)(=O)c1ccc(Oc2ccc(CC3Sc4ccc(C(=O)O)cc4N(CC(=O)NO)C3=O)cc2)cc1 (stereo not drawn) [Example 50]
MMP-9
  IC50: 244 nM
MMP-13
  IC50: 3 nM
MMP-3
  IC50: 38 nM

## CC(C)OCCN(CC(=O)NO)S(=O)(=O)c1ccc(Oc2ccc(S(C)(=O)=O)cc2)cc1 [Example 3, N^1-hydroxy-N^2-(2-isopropoxyethyl)-N^2-({4-[4-(methylsulfonyl)phenoxy]phenyl}sulfonyl)glycinamide]
MMP-9
  IC50: 1000 nM
MMP-13
  IC50: 0.5 nM
MMP-3
  IC50: 4.8 nM

## CC(C)CN(C1(C(=O)NO)CCCC1)S(=O)(=O)c1ccc(Oc2ccc(S(C)(=O)=O)cc2)cc1 [Example 2, N-hydroxy 1-[isobutyl({4-[4-(methylsulfonyl)phenoxy]phenyl}sulfonyl)amino]cyclopentanecarboxamide]
MMP-9
  IC50: 300 nM
MMP-13
  IC50: 5.7 nM
MMP-3
  IC50: 21.2 nM

## COc1ccc(Oc2ccc(CC3Sc4ccc(C(=O)O)cc4N(CC(=O)NO)C3=O)cc2)cc1 (stereo not drawn) [compound 1, reference compound]
MMP-9
  IC50: > 100 nM
MMP-13
  IC50: 7.4 nM
MMP-3
  IC50: 88 nM

## CCOC(=O)CN(CC(=O)NO)S(=O)(=O)c1ccc(Oc2ccc(S(C)(=O)=O)cc2)cc1 [Example 22, Ethyl N-{[(hydroxyamino)carbonyl]methyl}-N-({4-[4-(methylsulfonyl)phenoxy]phenyl}sulfonyl)-glycinate]
MMP-9
  IC50: 1400 nM
MMP-13
  IC50: 1.9 nM
MMP-3
  IC50: 26.6 nM

## CCOC(=O)CN(C1(C(=O)NO)CCCC1)S(=O)(=O)c1ccc(Oc2ccc(S(C)(=O)=O)cc2)cc1 [Example 23, Ethyl N-{1-[(hydroxyamino)carbonyl]cyclopentyl}-N-({4-[4-(methylsulfonyl)phenoxy]phenyl}sulfonyl)glycinate]
MMP-9
  IC50: 2300 nM
MMP-13
  IC50: 4.1 nM
MMP-3
  IC50: 21.6 nM

## CC(C)CN(C1(C(=O)NO)CCOCC1)S(=O)(=O)c1ccc(Oc2ccc(S(C)(=O)=O)cc2)cc1 [Example 15, N-Hydroxy-4-[isobutyl({4-[4-(methylsulfonyl)phenoxy]phenyl}sulfonyl)amino]tetrahydro-2H-pyrane-4-carboxamide]
MMP-9
  IC50: 700 nM
MMP-13
  IC50: 24.6 nM
MMP-3
  IC50: 5.2 nM

## CC(C)CN(C1(C(=O)NO)CCC1)S(=O)(=O)c1ccc(Oc2ccc(S(C)(=O)=O)cc2)cc1 [Example 18, N-Hydroxy-1-[isobutyl({4-[4-(methylsulfonyl)phenoxy]phenyl}sulfonyl)amino]cyclobutanecarboxamide]
MMP-9
  IC50: 500 nM
MMP-13
  IC50: 3.1 nM
MMP-3
  IC50: 29.9 nM

## CC(C)(C(=O)NO)N(Cc1ccccc1)S(=O)(=O)c1ccc(Oc2ccc(S(C)(=O)=O)cc2)cc1 [Example 10, N′^2′-Benzyl-N′^1′-hydroxy-2-methyl-N′^2′-({4-[4-(methylsulfonyl)phenoxy]phenyl}sulfonyl)alaninamide]
MMP-9
  IC50: 6800 nM
MMP-13
  IC50: 34.4 nM
MMP-3
  IC50: 85.8 nM

## CS(=O)(=O)c1ccc(Oc2ccc(S(=O)(=O)NC3(C(=O)NO)CCC3)cc2)cc1 [Example 48, N-Hydroxy-1-[({4-[4-(methylsulfonyl)phenoxy]phenyl}sulfonyl)amino]cyclobutanecarboxamide]
MMP-9
  IC50: > 100 nM
MMP-13
  IC50: 6.9 nM
MMP-3
  IC50: 35.9 nM

## CCOC(=O)CCN(C1(C(=O)NO)CCCC1)S(=O)(=O)c1ccc(Oc2ccc(S(C)(=O)=O)cc2)cc1 [Example 26, Ethyl N-{1-[(hydroxyamino)carbonyl]cyclopentyl}-N-({4-[4-(methylsulfonyl)phenoxy]phenyl}sulfonyl)-β-alaninate]
MMP-9
  IC50: > 100 nM
MMP-13
  IC50: 1.9 nM
MMP-3
  IC50: 14.3 nM

## CS(=O)(=O)c1ccc(Oc2ccc(S(=O)(=O)N(Cc3ccccc3)C3(C(=O)NO)CCOCC3)cc2)cc1 [Example 12, 4-[Benzyl({4-[4-(methylsulfonyl)phenoxy]phenyl}sulfonyl)amino]-N-hydroxytetrahydoro-2H-pyrane-4-carboxamide]
MMP-9
  IC50: < 100 nM
MMP-13
  IC50: 4 nM
MMP-3
  IC50: 16 nM

## COCCN(CC(=O)NO)S(=O)(=O)c1ccc(Oc2ccc(S(C)(=O)=O)cc2)cc1 [Example 44, N^1-Hydroxy-N^2-(2-methoxyethyl)-N^2-({4-[4-(methylsulfonyl)phenoxy]phenyl}sulfonyl)glycinamide]
MMP-9
  IC50: > 10000 nM
MMP-13
  IC50: 0.5 nM
MMP-3
  IC50: 2.7 nM

## CS(=O)(=O)c1ccc(Oc2ccc(S(=O)(=O)N(CC(=O)O)CC(=O)NO)cc2)cc1 [Example 24, N-{[(Hydroxyamino)carbonyl]methyl}-N-({4-[4-(methylsulfonyl)phenoxy]phenyl}sulfonyl)-glycine]
MMP-9
  IC50: > 10000 nM
MMP-13
  IC50: 16.3 nM
MMP-3
  IC50: 128 nM

## CS(=O)(=O)c1ccc(Oc2ccc(S(=O)(=O)NCC(=O)NO)cc2)cc1 [Example 13, N′^1′-Hydroxy-N′^2′-({4-[4-(methylsulfonyl)phenoxy]phenyl}sulfonyl)glycinamide]
MMP-9
  IC50: 4700 nM
MMP-13
  IC50: 10.8 nM
MMP-3
  IC50: 13.5 nM
